Test results: ChEMBL document CHEMBL5120865, “Exploration of 6-methyl-7-(Hetero)Aryl-7-Deazapurine ribonucleosides as antileishmanial agents” (Eur J Med Chem, 2022)

How the values were obtained:
[1] = Cytotoxicity against human MRC5 cells assessed as reduction in cell viability incubated for 3 days by resazurin dye based fluorescence analysis; format: toxicity; conditions: time 3 day
[2] = Selectivity index, ratio of CC50 for Cytotoxicity against Swiss mouse peritoneal macrophages to EC50 for intracellular Leishmania infantum MHOM/MA(BE)/67 ITMAP263 amastigotes infected in Swiss mouse peritoneal macrophages; format: toxicity, cell-based; conditions: read-out: Ratio CC50/EC50
[3] = Cytotoxicity against Swiss mouse peritoneal macrophages assessed as reduction in cell viability measured after 5 days by microscopic analysis; format: toxicity, cell-based, Peritoneal macrophage; conditions: time 5 day
[4] = system: Leishmania infantum; test: Antileishmanial activity against intracellular Leishmania infantum MHOM/MA(BE)/67 ITMAP263 amastigotes infected in Swiss mouse peritoneal macrophage assessed as inhibition of parasite growth measured after 5 days by geimsa staining based microscopic analysis; format: functional, organism-based; conditions: MHOM/MA(BE)/67 ITMAP263, Peritoneal macrophage, 120 h
[5] = system: Trypanosoma cruzi; test: Antitrypanosomal activity against nifurtimox-sensitive Tulahuen CL2 amastigotes expressing beta galactosidase infected in human MRC5 cells assessed as inhibition of parasite growth using chlorophenol red beta-D-galactopyranoside as substrate and measured after 7 days by spectrophotometric analysis; format: functional, organism-based; conditions: Tulahuen CL2, MRC5, 168 h
[6] = Selectivity index, ratio of CC50 for cytotoxicity against human MRC5 cells to EC50 for Trypanosoma cruzi Tulahuen CL2 amastigotes expressing beta galactosidase infected in human MRC5 cells; format: toxicity, cell-based; conditions: read-out: Ratio CC50/EC50

Compound	CC50 at 72 h [1] [µM]	selectivity ratio [2]	CC50 at 120 h [3] [µM]	EC50 [4] [µM]	EC50 [5] [nM]	EC50 ([5]; read-out: EC50) [nM]	selectivity ratio [6]
Cc1ncnc2c1c(-c1cnccn1)cn2[C@@H]1O[C@H](CO)[C@@H](O)[C@H]1O	> 64	> 6.3	> 64	10.1			
O=C(Cn1ccnc1[N+](=O)[O-])NCc1ccccc1 [BENZNIDAZOLE]					2280		
Cc1ncnc2c1c(-c1cccc(Cl)n1)cn2[C@@H]1O[C@H](CO)[C@@H](O)[C@H]1O	> 64	> 4.51	> 64	14.2			
Cc1ncnc2c1c(-c1cnn(C)c1)cn2[C@@H]1O[C@H](CO)[C@@H](O)[C@H]1O	> 64	> 8	> 64	8			
Cc1ncnc2c1c(-c1ccc[nH]1)cn2[C@@H]1O[C@H](CO)[C@@H](O)[C@H]1O	12.9	91.4	32	0.35		680	19
Cc1ncnc2c1c(-c1cc3ccccc3[nH]1)cn2[C@@H]1O[C@H](CO)[C@@H](O)[C@H]1O	14.8	> 36	> 64	1.7		620	24
Cc1ncnc2c1c(-c1cc3ccccc3o1)cn2[C@@H]1O[C@H](CO)[C@@H](O)[C@H]1O	45.8	1.58	32	20.3			
COc1ccccc1-c1cn([C@@H]2O[C@H](CO)[C@@H](O)[C@H]2O)c2ncnc(C)c12	> 64	> 3	> 64	21.1			
Cc1ncnc2c1c(-c1nccs1)cn2[C@@H]1O[C@H](CO)[C@@H](O)[C@H]1O	6.06	15.5	32	2.07		660	9.2
Cc1ncnc2c1c(-c1cccc3c1oc1ccccc13)cn2[C@@H]1O[C@H](CO)[C@@H](O)[C@H]1O	12.7	> 1.2	> 64	50.8			
Cc1ncnc2c1c(-c1ccccn1)cn2[C@@H]1O[C@H](CO)[C@@H](O)[C@H]1O	> 64	> 27	> 64	2.3		1600	> 39
